1 compound from patent publication US6413948B1, “Pharmaceutical compositions and methods of effecting a neuronal activity in an animal using naaladase inhibitors” (Guilford Pharmaceuticals Inc., priority 1996, dated 2002) can be followed below.

Assay [1] has as its system SHRSP rats which had sustained middle cerebral artery occlusion (MCAO). Briefly: In vivo assay on cortical injury following MCAO in SHRSP rats. An excerpt: A colony of SHRSP rats is bred at Johns Hopkins School of Medicine from three pairs of male and female rats obtained from the National Institutes of Health (Laboratory, Sciences Section, Veterinary Resources Program, National Center for Research Resources, Bethesda, Md.). All rats are kept in a virus-free environment and maintained on regular diet (NIH 31, Zeigler Bros, Inc.) with water ad libitum. All groups of rats are allowed to eat and drink water until the morning of the experiment.
Transient occlusion of the middle cerebral artery (MCA) is induced by advancing a 4-0 surgical nylon suture into the internal carotid artery (ICA) to block the origin of the MCA (Koizumi, 1986; Longa, 1989; Chen, 1992). The rats are anesthetized with 4% halothane, and maintained with 1.0% to 1.5% halothane in air enriched oxygen using a face mask. Rectal temperature is maintained at 37.0±0.5° C. throughout the surgical procedure using a heating lamp. The right femoral artery is cannulated for measuring blood gases (pH, oxygen tension [PO2], carbon dioxide tension [PCO2]) before and during ischemia, for monitoring blood pressure during the surgery. The right common carotid artery (CCA) is exposed through a midline incision; a self-retraining retractor is positioned between the digastric and mastoid muscles, and the omohyoid muscle is divided. The right external carotid artery (ECA) is dissected and ligated. The occipital artery branch of the ECA is then isolated and coagulated. Next, the right internal carotid artery (ICA) is isolated until the pterygopalatine artery is exposed, and carefully separated from the adjacent vagus nerve. The pterygopalatine artery is ligated with 4-0 silk suture close to its origin.
After the CCA is ligated with 4-0 silk suture, a 4-0 silk suture to prevent bleeding from a puncture site, through which a 2.5 cm length of 4-0 monofilament nylon suture (Ethilon), its tip rounded by heating near a electric cautery, is introduced into the ICA lumen. A 6-0 silk suture is tightened around the intraluminal nylon suture at the bifurcation to prevent bleeding, and the stretched sutures at the CCA and the ICA are released. The nylon suture is then gently advanced as far as 20 mm.
Anesthesia is terminated after 10 minutes of MCA occlusion in both groups, and the rats were awakened 5 minutes thereafter. After 2 hours of ischemia, anesthesia is reanesthetized, and reperfusion is performed by withdrawing the intraluminal nylon suture until the distal tip became visible at the origin of the ICA.
Arterial pH and PaCO2, and partial pressure of oxygen (PaO2) are measured with a self-calibrating Radiometer electrode system (ABL 3; Copenhagen, Denmark). Hemoglobin and arterial oxygen content are measured with a hemoximeter (Radiometer, Model OSM3; Copenhagen, Denmark). Blood glucose is measured with a glucose analyzer (model 2300A, Yellow Springs Instruments, Yellow Springs, Ohio).
Each group is exposed to 2 hours of right MCA occlusion and 22 hours of reperfusion. All variables but the rectal temperature are measured at baseline, at 15 minutes and 45 minutes of right MCA occlusion. The rectal temperature is measured at baseline, at 0 and 15 min of MCA occlusion, and at 0 and 22 hours of reperfusion.

In assay [2] the test system is cortical cell cultures. The assay can be described thus: In vitro assay of NAALADase inhibitors on ischemia (potassium cyanide and 2-deoxyglucose, LDH release). Format: cell-based, rats.
Description: The methods for this assay are described in detail below.
Dissociated cortical cell cultures are prepared using the papain-dissociation method of Heuttner and Baughman (1986) as modified by Murphy and Baraban (1990). […] Fetuses of embryonic day 17 are removed from timed pregnancy rats (Harlan Sprague Dawley). The cortex is rapidly dissected out in Dulbecco's phosphate-buffered saline, stripped of meninges, and incubated in a papain solution for 15 minutes at 37° C. The tissue is then mechanically triturated and pelleted at 500 g (1000-2000 rpm on swinging bucket Beckman). The pellet is resuspended in a DNAase solution, triturated with a 10 ml pipette ×15-20, layered over a “10×10” solution containing albumin and trypsin inhibitor (see TABLE VII for an example of a “10×10” solution), repelleted, and resuspended in a plating medium containing 10% fetal bovine serum (HyClone A-1111-L), 5% heat-inactivated Equine serum (HyClone A-3311-L), and 84% modified Earle's basal medium (MEM) (Gibco 51200-020) with high glucose (4.5 g/L), and 1 g/L NaHCO3. Each 24-well plate is pretreated with poly-D-lysine (0.5 ml/well of 10 μg/ml) for 1 h and rinsed with water before plating. Cultures are plated at 2.5×10^6 cells/ml with each well of a 24 well plate receiving 500 μl/well. Alternatively, 35 mm dishes can be plated at 2 ml/dish, 6 well plates at 2 ml/well, or 12 well plates at 1 ml/well. After plating, 50% of the medium is changed every 3-4 days with growth serum containing 5% heat-inactivated Equine serum (HyClone A3111-L), 95% modified Earle's basal medium (MEM)(Gibco 51200-020), and 1% L-Glutamine (Gibco 25030-081). Experiments are performed after 21 days in cultures. Cultures are maintained in a 5% CO2 atmosphere at 37° C.
Twenty-one to twenty-four days following the initial cortical cell plating, the experiment is performed. The cultures are washed three times in HEPES buffered saline solution containing no phosphate. […] At the end of 24 hours, the cultures are analyzed for release of the cytosolic enzyme lactate dehydrogenase (LDH), a standard measure of cell lysis. LDH measurements are performed according to the method of Koh and Choi, J. Neuroscience Methods (1987).
Release of the cytosolic enzyme lactate dehydrogenase (LDH), a standard measure of cell lysis, is used to quantify injury (Koh and Choi, 1987). LDH-activity measurements are normalized to control for variability between culture preparations (Koh and Choi, 1987). […] This control measurement is subtracted from each experimental point. […] Only main effects of NAALADase inhibitors are considered; interactions between dose and condition are not examined statistically.
Setting [3] is: 10 mg/kg followed by 2 mg/kg/hr for 1 hour.
The mark [4] stands for this setting: 100 mg/kg followed by 20 mg/kg/hr for one hour.

With `O=C(O)CCC(CP(=O)(O)O)C(=O)O` (centres unmarked) [2-(phosphonomethyl)pentanedioic acid], the “Cortical Injury Volume (% injury) ± S.E.M.” value in assay [1] (setting [3]) was 29.14 ± 7.68 (n = 10) % injury; in assay [1] (setting [4]) it was 13.98 ± 6.64 (n = 10) % injury. Moreover, the “Cortical Injury Volume (mm^3) ± S.E.M.” value in assay [1] (setting [3]) is given as 135.00 ± 32.18 (n = 10) mm^3; in assay [1] (setting [4]) it was 65.23 ± 32.18 (n = 10) mm^3. Moreover, the “Cortical Protection (% protection)” value is on record as 27% in assay [1] (setting [3]) and 65% in assay [1] (setting [4]). In addition, the “% Toxicity” value is given as 66.57 ± 4.38 (n = 5) % in assay [2] (ischemic insult, 100 pM); 42.31 ± 9.34 (n = 5) % in assay [2] (ischemic insult, 1 nM); 33.08 ± 9.62 (n = 5) % in assay [2] (ischemic insult, 10 nM); 30.23 ± 9.43 (n = 5) % in assay [2] (ischemic insult, 100 nM); 8.56 ± 8.22 (n = 5) % in assay [2] (ischemic insult, 1 μM); 31.49% in assay [2] (time of administration: Delayed 30 Minutes). Moreover, the “% Toxicity” value in assay [2] (time of administration: Exposure & Recovery) turned out to be 2.54%; in assay [2] (time of administration: Recovery Only) it was 9.03%.
